Source: patent publication US20050227956A1, “Control of mold growth on wood” (priority 2004, published 2005)

How the values were obtained:
Aspergillus niger = assay: Six-well plate screening test; assay type: cell-based; details: for Minimum Inhibitory Concentrations (MIC): 10 days of incubation at room temperature
Aureobasidium pullulans = assay: Six-well plate screening test; assay type: cell-based; details: for Minimum Inhibitory Concentrations (MIC): 10 days of incubation at room temperature
[1] = test system: Cladosporium cladosporioides; assay: Six-well plate screening test; assay type: cell-based; details: for Minimum Inhibitory Concentrations (MIC): 10 days of incubation at room temperature
Penicillium funiculosum = assay: Six-well plate screening test; assay type: cell-based; details: for Minimum Inhibitory Concentrations (MIC): 10 days of incubation at room temperature
Alternaria alternata = assay: Six-well plate screening test; assay type: cell-based; details: for Minimum Inhibitory Concentrations (MIC): 10 days of incubation at room temperature
Trichoderma virens = assay: Six-well plate screening test; assay type: cell-based; details: for Minimum Inhibitory Concentrations (MIC): 10 days of incubation at room temperature
Stachybotrus charatrum = assay: Six-well plate screening test; assay type: cell-based
Mold from ACQ wood = assay: Six-well plate screening test; assay type: cell-based, cephalosporium; details: 10 days of incubation at room temperature
[2] = test system: Alternaria alternata, Aspergillus niger, Aureobasidium pullulans, Cladosporium cladosporioides, Cephalosporium sp. (DR 423); assay: Wood panel test method; parameters: species or system mixed spore suspension of mold; details: compositions with the single moldicide at 40 mg/kg
Protocol: The wood panel specimens were approximately 5×3 inches (12.7×7.6 cm)×board thickness. There were seven replicates per treatment. The wood panels were conditioned at approximately 80° F. (27° C.) and 80% relative humidity for one week prior to mold inoculation. The wood panels were supported on a screen above a layer of water in a sealed plastic box for 8 weeks at approximately 80° F. (27° C.) and 100% relative humidity.
Mold and stain fungi used for inoculum were Alternaria alternata, Aspergillus niger, Aureobasidium pullulans, Cladosporium cladosporioides, and an additional mold isolated from ACQ-treated wood from Georgia Pacific (October 2002, tentatively identified as Cephalosporium sp. (DR 423).
Each inoculum was produced from fully colonized, 2% malt agar in 100 mm petri plates, by washing spores with 10 mL distilled water plus 10 mL rinse (20 mL inoculum were produced per plate). The panels were inoculated by spraying with mixed spore suspension of mold on the surface to be evaluated; approx. 2-3 mL of inoculum were applied per panel. The panel surfaces were lightly misted with distilled water once per week during the evaluation test to maintain optimum conditions for mold colonization in the chambers. Two evaluation ratings were made weekly for 8 weeks; using a scale of 0 (no coverage by mold) to 10 (total coverage by mold). […]

[3] = single moldicide or ACQ-C alone, incubation period 14 days
[4] = single moldicide, incubation period 21 days

| Compound | Minimum Inhibitory Concentrations (MIC) (Aspergillus niger) [mg/kg] | MIC (Aspergillus niger; [3]) [mg/kg] | Minimum Inhibitory Concentrations (MIC) (Aureobasidium pullulans) [mg/kg] | MIC (Aureobasidium pullulans; [3]) [mg/kg] | Minimum Inhibitory Concentrations (MIC) [1] [mg/kg] | MIC [1, 3] [mg/kg] | Minimum Inhibitory Concentrations (MIC) (Penicillium funiculosum) [mg/kg] | MIC (Penicillium funiculosum; [3]) [mg/kg] | Minimum Inhibitory Concentrations (MIC) (Alternaria alternata) [mg/kg] | MIC (Alternaria alternata; [3]) [mg/kg] | Minimum Inhibitory Concentrations (MIC) (Trichoderma virens) [mg/kg] | MIC (Trichoderma virens; [3]) [mg/kg] | Minimum Inhibitory Concentrations (MIC) (Mold from ACQ wood) [mg/kg] | potential to control mold growth [2] | further results |
| --- | --- | --- | --- | --- | --- | --- | --- | --- | --- | --- | --- | --- | --- | --- | --- |
| CCCC1COC(Cn2cncn2)(c2ccc(Cl)cc2Cl)O1 (stereo not drawn) [Propiconazole, cis-trans-1-[2-(2,4-dichlorophenyl)-4-propyl-1,3-dioxolan-2-ylmethyl]-1H-1,2,4-triazole] | 10 | 25 | 1 | 0.8 | 1 | 3.1 | 100 | >100 | >100 | 100 | 10 | 6.2 | 10 | good potential to control mold growth | MIC (Aspergillus niger; [4]): 25 mg/kg; MIC (Aureobasidium pullulans; [4]): 0.8 mg/kg; MIC [1, 4]: 3.1 mg/kg; MIC (Penicillium funiculosum; [4]): >100 mg/kg; MIC (Alternaria alternata; [4]): 100 mg/kg; MIC (Trichoderma virens; [4]): 12.5 mg/kg; MIC (Stachybotrus charatrum; [3]): 25 mg/kg; MIC (Stachybotrus charatrum; [4]): 25 mg/kg |
| CC(C)(C)C(O)(CCc1ccc(Cl)cc1)Cn1cncn1 (racemic) [Tebuconazole, (RS)-1-p-chlorophenyl4,4-dimethyl-3-(1H-1,2,4-triazol-1-ylmethyl)pentan-3-ol] | 10 | 10 | 10 | 10 | 10 | 10 | >10 | >10 | 100 | 100 | >10 | >10 | >100 | good potential to control mold growth | – |
